Measured values taken from patent US11891387B2, “Monoacylglycerol lipase modulators” (Janssen Pharmaceutica NV, priority 2020, dated 2024).

Molecular target: human MGL from HeLa cells (Homo sapiens (Human), UniProt Q99685)
Assay: MGL in vitro activity assay: cleavage of [glycerol-1,3-3H]-oleyl glycerol, activated carbon filtration
Type: biochemical
Settings: 300 nM [Glycerol-1,3-3H]-oleyl glycerol, endogenously expressed MGL from HeLa cells, one hour incubation
Method in brief: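 Endogenous human MGL from HeLa cells or homogenates was incubated with compound and 300 nM [glycerol-1,3-3H]-oleyl glycerol for one hour. Released [3H]-glycerol passing an activated carbon filter was counted as the measure of activity. Screening used 10 μM compound, with IC50 top concentration set empirically.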

human MGL from HeLa cells, sequence (Q99685 whole entry): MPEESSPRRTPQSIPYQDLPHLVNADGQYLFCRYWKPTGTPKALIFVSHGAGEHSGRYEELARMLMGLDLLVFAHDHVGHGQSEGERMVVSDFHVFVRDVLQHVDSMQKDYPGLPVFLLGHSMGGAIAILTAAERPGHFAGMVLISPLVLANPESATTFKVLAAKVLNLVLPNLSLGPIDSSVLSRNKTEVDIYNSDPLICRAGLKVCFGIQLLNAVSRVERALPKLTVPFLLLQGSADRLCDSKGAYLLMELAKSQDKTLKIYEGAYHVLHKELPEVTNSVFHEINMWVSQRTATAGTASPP

Row | Compound | IC50 [nM]
1 | C[C@H]1c2nn(C)c(-c3cc(C(F)(F)F)n(C)n3)c2CCN1C(=O)c1ccc2ncsc2c1 [Example 120, (S)-Benzo[d]thiazol-6-yl(2,7-dimethyl-3-(1-methyl-5-(trifluoromethyl)-1H-pyrazol-3-yl)-2,4,5,7-tetrahydro-6H-pyrazolo[3,4-c]pyridin-6-yl)methanone] | 46
2 | COc1nccc(C(=O)N2CCc3c(nn(C)c3-c3cc(C(F)(F)F)n(C)n3)[C@@H]2C)c1C [Example 121, (S)-(2,7-Dimethyl-3-(1-methyl-5-(trifluoromethyl)-1H-pyrazol-3-yl)-2,4,5,7-tetrahydro-6H-pyrazolo[3,4-c]pyridin-6-yl)(2-methoxy-3-methylpyridin-4-yl)methanone] | 83
3 | Cc1cc(C(=O)N2CCc3c(nn(C)c3-c3cc(C(F)(F)F)n(C)n3)[C@@H]2C)c2cc(F)ccc2n1 [Example 132, (S)-(2,7-Dimethyl-3-(1-methyl-5-(trifluoromethyl)-1H-pyrazol-3-yl)-2,4,5,7-tetrahydro-6H-pyrazolo[3,4-c]pyridin-6-yl)(6-fluoro-2-methylquinolin-4-yl)methanone] | 27
4 | Cc1cc2ncsc2cc1C(=O)N1CCc2c(nn(C)c2-c2cc(C(F)(F)F)nn2C)[C@@H]1C [Example 134, (S)-(2,7-Dimethyl-3-(1-methyl-3-(trifluoromethyl)-1H-pyrazol-5-yl)-2,4,5,7-tetrahydro-6H-pyrazolo[3,4-c]pyridin-6-yl)(5-methylbenzo[d]thiazol-6-yl)methanone] | 87
5 | Cc1cc(C(=O)N2CCc3c(nn(C)c3-c3cc(C(F)(F)F)nn3C)[C@@H]2C)cc2scnc12 [Example 135, (S)-(2,7-Dimethyl-3-(1-methyl-3-(trifluoromethyl)-1H-pyrazol-5-yl)-2,4,5,7-tetrahydro-6H-pyrazolo[3,4-c]pyridin-6-yl)(4-methylbenzo[d]thiazol-6-yl)methanone] | 22

Further compounds by falling IC50, results first:

Row | IC50 [nM] | Compound
6 | 950 | C[C@H]1c2nn(C)c(-c3cc(C(F)(F)F)nn3C)c2CCN1C(=O)c1cnc2ncsc2c1 [Example 123, (S)-(2,7-Dimethyl-3-(1-methyl-3-(trifluoromethyl)-1H-pyrazol-5-yl)-2,4,5,7-tetrahydro-6H-pyrazolo[3,4-c]pyridin-6-yl)(thiazolo[4,5-b]pyridin-6-yl)methanone]
7 | 260 | C[C@H]1c2nn(C)c(-c3cc(C(F)(F)F)nn3C)c2CCN1C(=O)c1cc2scnc2cn1 [Example 122, (S)-(2,7-Dimethyl-3-(1-methyl-3-(trifluoromethyl)-1H-pyrazol-5-yl)-2,4,5,7-tetrahydro-6H-pyrazolo[3,4-c]pyridin-6-yl)(thiazolo[4,5-c]pyridin-6-yl)methanone]
8 | 24 | Cc1c(C(=O)N2CCc3c(nn(C)c3-c3cc(C(F)(F)F)nn3C)[C@@H]2C)ccc2ncsc12 [Example 133, (S)-(2,7-Dimethyl-3-(1-methyl-3-(trifluoromethyl)-1H-pyrazol-5-yl)-2,4,5,7-tetrahydro-6H-pyrazolo[3,4-c]pyridin-6-yl)(7-methylbenzo[d]thiazol-6-yl)methanone]
